Reference: patent US8575089B2, “Composition for preventing or treating inflammation” (University-Industry Cooperation Group of Kyung Hee, priority 2009, dated 2013)
Where no end group is shown, it is not given here.

Columns and labels:
[1] = system: CD4+ T cell isolated from peripheral blood; assay: IL-6 and IL-10 expression (ELISA) in CD4+ T cells treated with SP; type: cell-based, C57b1/6 mice; conditions: CD4+ T cell in T-cell activation media; SP as Example 1-(1); 4.5, 10, 24 hours; FIG. 2
Method: [The procedure below names another cell line; the source says it served here with some conditions changed.] Peripheral blood was collected from C57b1/6 mice (8 weeks, sex; male, n=5, Average Weight; 20 g), diluted doubly with PBS, carefully placed on Ficoll in a tube, and then centrifuged at 2200 rpm for 20 minutes. By centrifuging, from the bottom, an erythrocyte layer, a ficoll layer, a mononuclear cell layer, and a plasma layer were obtained in order. The mononuclear cell layer and plasma layer were isolated, excluding the erythrocyte layer and ficoll layer, and then washed one time with PBS. Then, the number of cells was counted; the cells with a concentration of 1×10^5/0.2 ml were seeded onto T-cell activation media (lymphocyte activation media; RPMI, 10% FBS, 100 μM 2-mercaptoetanol, 20 μg/ml ConA); then the cells were cultured at an incubator of 37° C.; and then culture supernatant was taken at 4.5 hours, 10 hours, and 24 hours. For SP-treated group, 10 nmole/kg of SP dissolved in a physiological saline was treated to T-cell activation media. […] After 30 minutes, 100 μl of stop codon was treated to stop the reaction; the optical density was measured at 450 nm; the amounts of cytokines were converted based on a protein conversion formula by a standard sample; and then the results were shown in FIG. 1. […]

[2] = system: hematopoietic stem cells in blood; assay: Corneal epithelial burn model: HSC-CFU assay of blood cells; type: in vivo, New Zealand white rabbit; conditions: rabbit, alkali burn of cornea; 5 nmole/kg SP i.v. immediately and 24 hours after burning; without SP peak at five days; FIG. 5
Method: (§1) Ketalar (50 mg/ml, Yuhan Corporation) and Rompun (23.32 mg (Xylazine hydrochloride)/ml, Bayer Korea Corporation) were mixed in a rate of 2:1, and then total 900 μl (Ketalar 600 μl: Rompun 300 μl) was injected into muscles of rabbits (New Zealand white rabbit, Male, 2.5 kg, n=4). After the intramuscular injection, 300 μl (Ketalar 200 μl: Rompun 100 μl) of the same anesthetic drug was injected in the rabbit's ear vein.
(§2) A 6 mm paper disc fully wetted by 1N NaOH was contacted to a limbus part of rabbit's cornea for 10 seconds. After alkali burning, corneal epithelium was removed in a size of the paper disc. The rabbit's eyes were quickly washed with a physiological saline immediately after alkali burning. At the same time, 5 nmole/kg of SP dissolved in a physiological saline was intravenously injected, and then after 24 hours, was injected once more (immediately after burning and at 24 hours after burning). For the control, PBS with the same volume was injected (injection Volume: 1 ml).
(§3) Peripheral blood was collected from ear veins in 10 ml at one, three, five and seven days after alkali burning. […]
1×10^4 cells among the whole cells was used for HSC-CFU assay. […] The cells were cultured in the media for 2 weeks (5% CO2, 37° C.), the number of colonies was counted by using a microscope (Leica) and then the results were shown in FIG. 5.

[3] = system: mononuclear cells in blood; assay: Corneal epithelial burn model: number of mononuclear cells in blood; type: in vivo, New Zealand white rabbit; conditions: rabbit, alkali burn of cornea; 5 nmole/kg SP i.v. immediately and 24 hours after burning; vs continuously increased without SP; FIG. 4
Method: as §1, §2, §3
The blood obtained from the above step was diluted twice with PBS, and then carefully put on Ficoll in a tube. […] Then, after adding 30 ml of PBS and centrifuging (washing step), the number of cells was counted to confirm the number of cells per 1 ml and then the results were shown in FIG. 4.

Substance-P (RPKPQQFFGLM; not fully specified; ends and bridges not checked; UniProt P20366 58-68, looked up)
expression level of IL-6 in culture supernatant [1]: no difference | expression of IL-10 in culture supernatant [1]: increased | number of HSC (HSC-CFU colonies) in blood [2]: increased at early stage and then decreased immediately three days after injection | total number of mononuclear cells per 1 ml blood [3]: decreased at seven days
